According to patent US4472404A, “8-Quinolinyl carbamates and their use as urinary tract antimicrobials” (priority 1982, dated 1984):

Key:
Format in all cases: cell-based
Aspergillus niger = experiment: Agar-plate minimum inhibitory concentration (Example 12); details: agar, 72-120 hours, read-out: Minimum Inhibitory Concentration
Description: (§1) The test compound was added to molten agar as a solution (when conveniently soluble in a solvent such as dimethylformamide) or a suspension forming a mixture having a concentration of 0.05 percent (500 ppm). The mixture was stirred and poured into plates to harden. When hardened, the plates were inoculated with various bacteria and fungi. The bacteria-inoculated plates were incubated at 37° C. for 24 hours, while the fungi-inoculated plates were incubated for about 72-120 hours. Following incubation, the plates were examined for growth or inhibition of the respective organisms.
(§2) After the initial readings, compounds showing sufficient activity were re-tested at various concentrations to determine the minimum inhibitory concentration (in ppm) of the compounds of the invention against the various bacteria and fungi tested.

Bacillus subtilis = experiment: as above; details: agar, 37° C., 24 hours, read-out: Minimum Inhibitory Concentration
Description: as §1, §2

Candida albicans = experiment: as above; details: agar, 72-120 hours, read-out: Minimum Inhibitory Concentration
Description: as §1, §2

Candida pelliculosa = experiment: as above; details: Hansenula anomala; Candida pelliculosa; agar, 72-120 hours; read-out: Minimum Inhibitory Concentration
Description: as §1, §2

Ceratocystis ips = experiment: as above; details: Ceratocystis ips; agar, 72-120 hours; read-out: Minimum Inhibitory Concentration
Description: as §1, §2

Salmonella typhosa = experiment: as above; details: Salmonella enterica; Salmonella typhosa; agar, 37° C., 24 hours; read-out: Minimum Inhibitory Concentration
Description: as §1, §2

Streptococcus mutans = experiment: as above; details: agar, 37° C., 24 hours, read-out: Minimum Inhibitory Concentration
Description: as §1, §2

[1] = tested on: Trichophyton mentagrophytes; experiment: as above; details: agar, 72-120 hours, read-out: Minimum Inhibitory Concentration
Description: as §1, §2

[2] = tested on: Enterobacter aerogenes ATCC 13048; experiment: Minimum inhibitory concentration, urinary tract organisms (Example 13); details: Klebsiella aerogenes, ATCC13048; Ea 13048; read-out: Minimum Inhibitory Concentration
Description: as §1, §2
(§3) Following a procedure substantially the same as that described in Example 12, the minimum inhibitory concentration for the compounds described herein was determined for various organisms representative of those commonly associated with urinary tract infections.
(§4) The organisms used in this procedure and the abbreviations designated in Table 3 are as follows: […]

[3] = tested on: Escherichia coli ATCC 11229; experiment: as above; details: ATCC11229, Ec 11229, read-out: Minimum Inhibitory Concentration
Description: as §1, §2, §3, §4

[4] = tested on: Escherichia coli ATCC 25922; experiment: as above; details: ATCC25922, Ec 25922, read-out: Minimum Inhibitory Concentration
Description: as §1, §2, §3, §4

[5] = tested on: Escherichia coli ATCC 4157; experiment: as above; details: ATCC4157, Ec 4157, read-out: Minimum Inhibitory Concentration
Description: as §1, §2, §3, §4

[6] = tested on: Escherichia coli ATCC 9723; experiment: as above; details: ATCC9723, Ec 9723, read-out: Minimum Inhibitory Concentration
Description: as §1, §2, §3, §4

[7] = tested on: Klebsiella pneumoniae ATCC 23357; experiment: as above; details: ATCC23357, Kp 23357, read-out: Minimum Inhibitory Concentration
Description: as §1, §2, §3, §4

[8] = tested on: Klebsiella pneumoniae M-1; experiment: as above; details: M1, Kp M-1, read-out: Minimum Inhibitory Concentration
Description: as §1, §2, §3, §4

[9] = tested on: Klebsiella pneumoniae M-2; experiment: as above; details: M2, Kp M-2, read-out: Minimum Inhibitory Concentration
Description: as §1, §2, §3, §4

[10] = tested on: Klebsiella pneumoniae M-6; experiment: as above; details: M6, Kp M-6, read-out: Minimum Inhibitory Concentration
Description: as §1, §2, §3, §4

Proteus mirabilis 470/1 = experiment: as above; details: Pm 470/1, read-out: Minimum Inhibitory Concentration
Description: as §1, §2, §3, §4

[11] = tested on: Pseudomonas aeruginosa ATCC 10145; experiment: as above; details: ATCC10145, Pa 10145, read-out: Minimum Inhibitory Concentration
Description: as §1, §2, §3, §4

[12] = tested on: Pseudomonas aeruginosa ATCC 27853; experiment: as above; details: ATCC27853, Pa 27853, read-out: Minimum Inhibitory Concentration
Description: as §1, §2, §3, §4

[13] = tested on: Pseudomonas aeruginosa ATCC 7700; experiment: as above; details: ATCC7700, Pa 7700, read-out: Minimum Inhibitory Concentration
Description: as §1, §2, §3, §4

[14] = tested on: Pseudomonas aeruginosa PRD-10; experiment: as above; details: PRD10, Pa PRD-10, read-out: Minimum Inhibitory Concentration
Description: as §1, §2, §3, §4

Serratia marcescens M-1 = experiment: as above; details: M1, Sr M-1, read-out: Minimum Inhibitory Concentration
Description: as §1, §2, §3, §4

[15] = tested on: Staphylococcus aureus ATCC 25923; experiment: as above; details: ATCC25923, Sa 25923, read-out: Minimum Inhibitory Concentration
Description: as §1, §2, §3, §4

| Structure (SMILES) | MIC (Aspergillus niger) | MIC (Bacillus subtilis) | MIC (Candida albicans) | MIC (Candida pelliculosa) | MIC (Ceratocystis ips) | MIC (Salmonella typhosa) | MIC (Streptococcus mutans) | MIC [1] | MIC [2] | MIC [3] | MIC [4] | MIC [5] | MIC [6] | MIC [7] | MIC [8] | MIC [9] | MIC [10] | MIC (Proteus mirabilis 470/1) | MIC [11] | MIC [12] | also measured |
| --- | --- | --- | --- | --- | --- | --- | --- | --- | --- | --- | --- | --- | --- | --- | --- | --- | --- | --- | --- | --- | --- |
| CCOC(=O)CNC(=O)Oc1ccc(Cl)c2cccnc12.Cl [Example 8, Ethyl N-(((5-chloro-8-quinolinyl)oxy)carbonyl)glycinate hydrochloride salt] | 10 µg/mL | 1 µg/mL | 10 µg/mL | 10 µg/mL | 50 µg/mL | 50 µg/mL | > 500 µg/mL | 10 µg/mL | 50 µg/mL | 25 µg/mL | 25 µg/mL | 25 µg/mL | 25 µg/mL | 50 µg/mL | 50 µg/mL | 50 µg/mL | 25 µg/mL | 50 µg/mL | 75 µg/mL | 100 µg/mL | MIC [13]: 100 µg/mL; MIC [14]: 100 µg/mL; MIC (Serratia marcescens M-1): 75 µg/mL; MIC [15]: 10 µg/mL |
| CCOC(=O)CNC(=O)Oc1ccc(Cl)c2cccnc12.CS(=O)(=O)O [Example 7, Ethyl N-(((5-chloro-8quinolinyl)oxy)carbonyl)glycinate methanesulfonic acid salt] | 50 µg/mL | 5 µg/mL | 50 µg/mL | 50 µg/mL | 50 µg/mL | 10 µg/mL | 500 µg/mL | 10 µg/mL | 75 µg/mL | 50 µg/mL | 25 µg/mL | 50 µg/mL | 50 µg/mL | 75 µg/mL | 75 µg/mL | 75 µg/mL | 50 µg/mL | 75 µg/mL | 75 µg/mL | 250 µg/mL | MIC [13]: 250 µg/mL; MIC [14]: 250 µg/mL; MIC (Serratia marcescens M-1): 100 µg/mL; MIC [15]: < 5 µg/mL |
